{
  "source": "paper PMC7710018",
  "about": "“Restoration of motor learning in a mouse model of Rett syndrome following long-term treatment with a novel small-molecule activator of TrkB” (Disease Models & Mechanisms, 2020)",
  "key": {"A2A (h)": {"target": "T1, A2A (h) (Homo sapiens, UniProt P29274)", "T1 construct": "purchased Cerep (ExpresSProfile)", "T1 sequence (P29274 whole entry)": "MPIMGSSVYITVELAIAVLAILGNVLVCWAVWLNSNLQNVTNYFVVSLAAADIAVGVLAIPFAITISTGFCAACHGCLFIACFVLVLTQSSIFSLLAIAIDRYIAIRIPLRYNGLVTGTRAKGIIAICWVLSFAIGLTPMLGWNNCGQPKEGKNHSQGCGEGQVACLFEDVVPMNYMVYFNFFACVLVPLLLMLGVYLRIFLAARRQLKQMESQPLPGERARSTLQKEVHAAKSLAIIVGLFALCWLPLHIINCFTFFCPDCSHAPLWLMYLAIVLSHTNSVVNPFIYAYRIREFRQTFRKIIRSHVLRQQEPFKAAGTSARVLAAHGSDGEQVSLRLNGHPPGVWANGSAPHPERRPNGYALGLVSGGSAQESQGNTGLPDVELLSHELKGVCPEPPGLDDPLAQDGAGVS", "assay": "Cerep ExpresSProfile radioligand binding", "conditions": "10 micromolar, agonist radioligand", "procedure": "(§1) To evaluate the relative binding specificity of LM22A-4 ([Massa et al., 2010]) and PTX-BD4-3, binding to a broad range of 55 pharmacologically relevant receptors, including numerous neurotransmitter and G-protein coupled receptors was assessed using standard radioligand competition binding assays (ExpressSProfile) performed by Cerep, Inc. (Seattle, WA, USA). In addition, ADME-Tox analysis was performed by Cerep, Inc. All experimental conditions are described on the Cerep website (www.cerep.fr).\n(§2) Ligand % Inhibition of Control Specific […]\n(§3) 48 Ca2+ channel (L, verapamil site) 0 ‐1.3 ‐0.7\n(§4) (phenylalkylamine) (antagonist radioligand) […]\n(§5) 51 Na+ channel (site 2) (antagonist radioligand) 0.6 11.7 6.1\n(§6) 52 Cl‐ channel (GABA‐gated) (antagonist 2.7 ‐5.3 ‐1.3 […]\n(§7) Table S1. In vitro binding assays. An ExpresSProfile screen of PTX-BD4-3 binding to a panel of pharmacologically relevant receptors was conducted by Cerep, Inc.\n(§8) (Eurofins Panlabs, MO). The results are expressed as percent inhibition of control specific binding obtained in the presence of 10 micromolar PTX-BD4-3. In this assay, values below 50% indicate no specific binding of PTX-BD4-3. The assay was negative for PTX-BD4-3 binding to all of the 55 receptors in the screen.\n(§9) (also on this page, place not known: 2B 5‐HT 3 5‐HT 5a 5‐HT 6 5‐HT 7 (agonis t VPAC 1 V 1 Ca 2+ K V SK Ca Na + Cl ‐ 5‐HT Disease Models & Mechanisms: doi:10.1242/dmm.044685: Supplementary information Disease Models & Mechanisms • Supplementary information)"}, "BZD (central)": {"test_system": "BZD (central)", "assay": "Cerep ExpresSProfile radioligand binding", "conditions": "10 micromolar; agonist radioligand", "procedure": "as §1, §2, §3, §4, §5, §6, §7, §8, §9"}, "A1 (h)": {"target": "T2, A1 (h) (Homo sapiens, UniProt P30542)", "T2 construct": "purchased Cerep (ExpresSProfile)", "T2 sequence (P30542 1-326)": "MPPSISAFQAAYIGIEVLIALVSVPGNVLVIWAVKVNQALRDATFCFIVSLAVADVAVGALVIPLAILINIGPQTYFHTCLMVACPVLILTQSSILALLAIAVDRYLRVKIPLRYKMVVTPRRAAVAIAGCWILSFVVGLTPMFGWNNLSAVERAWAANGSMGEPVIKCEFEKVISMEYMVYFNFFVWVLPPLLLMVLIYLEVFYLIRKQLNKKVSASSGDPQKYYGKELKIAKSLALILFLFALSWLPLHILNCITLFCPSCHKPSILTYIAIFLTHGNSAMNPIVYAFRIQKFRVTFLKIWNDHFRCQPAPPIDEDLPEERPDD", "assay": "Cerep ExpresSProfile radioligand binding", "conditions": "10 micromolar, agonist radioligand", "procedure": "as §1, §2, §3, §4, §5, §6, §7, §8, §9"}, "EP4 (h)": {"target": "T3, EP4 (h) (Homo sapiens, UniProt P35408)", "T3 construct": "purchased Cerep (ExpresSProfile)", "T3 sequence (P35408 whole entry)": "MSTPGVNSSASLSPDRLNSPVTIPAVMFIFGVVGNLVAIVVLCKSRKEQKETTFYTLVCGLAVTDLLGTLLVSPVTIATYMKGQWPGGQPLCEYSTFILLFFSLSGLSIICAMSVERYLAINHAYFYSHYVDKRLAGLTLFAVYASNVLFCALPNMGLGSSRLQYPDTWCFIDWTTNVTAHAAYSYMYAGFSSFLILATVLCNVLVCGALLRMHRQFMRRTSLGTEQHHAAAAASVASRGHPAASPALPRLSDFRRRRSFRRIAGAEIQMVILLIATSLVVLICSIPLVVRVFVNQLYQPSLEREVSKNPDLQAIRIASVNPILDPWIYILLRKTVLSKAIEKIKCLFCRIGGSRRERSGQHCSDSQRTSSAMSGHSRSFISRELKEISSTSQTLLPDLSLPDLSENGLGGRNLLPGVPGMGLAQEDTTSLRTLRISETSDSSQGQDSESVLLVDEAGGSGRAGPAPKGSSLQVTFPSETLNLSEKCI", "assay": "Cerep ExpresSProfile radioligand binding", "conditions": "10 micromolar, agonist radioligand", "procedure": "as §1, §2, §3, §4, §5, §6, §7, §8, §9"}, "μ (MOP) (h)": {"target": "T4, μ (MOP) (h) (Homo sapiens, UniProt P35372)", "T4 construct": "purchased Cerep (ExpresSProfile)", "T4 sequence (P35372 whole entry)": "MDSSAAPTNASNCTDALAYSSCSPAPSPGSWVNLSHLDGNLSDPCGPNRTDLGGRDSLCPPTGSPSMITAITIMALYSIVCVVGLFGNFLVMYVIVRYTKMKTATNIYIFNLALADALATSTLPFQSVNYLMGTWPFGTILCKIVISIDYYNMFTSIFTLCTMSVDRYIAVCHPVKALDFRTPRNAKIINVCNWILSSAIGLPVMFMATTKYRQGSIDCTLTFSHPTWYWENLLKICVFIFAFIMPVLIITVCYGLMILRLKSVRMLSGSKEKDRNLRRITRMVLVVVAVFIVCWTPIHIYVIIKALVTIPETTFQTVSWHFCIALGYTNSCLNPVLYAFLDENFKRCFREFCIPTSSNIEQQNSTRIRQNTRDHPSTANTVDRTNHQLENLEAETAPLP", "assay": "Cerep ExpresSProfile radioligand binding", "conditions": "10 micromolar; agonist radioligand; read-out: % Inhibition of Control Specific Binding 1st", "procedure": "as §1, §2, §3, §4, §5, §6, §7, §8, §9"}, "H1 (h)": {"target": "T5, H1 (h) (Homo sapiens, UniProt P35367)", "T5 construct": "purchased Cerep (ExpresSProfile)", "T5 sequence (P35367 whole entry)": "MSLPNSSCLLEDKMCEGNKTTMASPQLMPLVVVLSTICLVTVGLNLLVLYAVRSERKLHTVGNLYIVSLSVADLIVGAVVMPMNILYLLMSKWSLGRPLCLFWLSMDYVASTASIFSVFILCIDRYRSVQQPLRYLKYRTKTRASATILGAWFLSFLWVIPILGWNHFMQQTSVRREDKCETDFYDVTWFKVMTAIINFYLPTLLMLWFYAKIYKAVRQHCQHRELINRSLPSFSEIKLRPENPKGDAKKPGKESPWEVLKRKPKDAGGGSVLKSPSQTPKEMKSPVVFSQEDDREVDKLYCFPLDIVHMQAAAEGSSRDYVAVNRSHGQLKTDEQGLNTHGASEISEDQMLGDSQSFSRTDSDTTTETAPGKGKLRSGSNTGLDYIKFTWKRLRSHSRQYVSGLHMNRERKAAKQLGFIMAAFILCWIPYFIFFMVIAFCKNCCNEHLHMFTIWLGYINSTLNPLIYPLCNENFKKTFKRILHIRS", "assay": "Cerep ExpresSProfile radioligand binding", "conditions": "10 micromolar, antagonist radioligand", "procedure": "as §1, §2, §3, §4, §5, §6, §7, §8, §9"}, "5-HT2A (h)": {"target": "T6, 5-HT2A (h) (Homo sapiens, UniProt P28223)", "T6 construct": "purchased Cerep (ExpresSProfile)", "T6 sequence (P28223 whole entry)": "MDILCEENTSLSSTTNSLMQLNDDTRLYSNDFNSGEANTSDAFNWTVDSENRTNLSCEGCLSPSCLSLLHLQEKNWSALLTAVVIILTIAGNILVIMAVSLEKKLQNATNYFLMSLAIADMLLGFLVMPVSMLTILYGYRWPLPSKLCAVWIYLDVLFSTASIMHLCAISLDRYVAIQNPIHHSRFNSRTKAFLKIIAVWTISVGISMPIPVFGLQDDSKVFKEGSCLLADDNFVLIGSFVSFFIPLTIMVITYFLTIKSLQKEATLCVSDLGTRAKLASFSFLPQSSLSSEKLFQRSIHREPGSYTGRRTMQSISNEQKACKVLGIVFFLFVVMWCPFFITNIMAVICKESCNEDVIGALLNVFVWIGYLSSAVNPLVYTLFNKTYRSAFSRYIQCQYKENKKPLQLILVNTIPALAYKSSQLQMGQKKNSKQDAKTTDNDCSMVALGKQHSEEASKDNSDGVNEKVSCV", "assay": "Cerep ExpresSProfile radioligand binding", "conditions": "10 micromolar, antagonist radioligand", "procedure": "as §1, §2, §3, §4, §5, §6, §7, §8, §9"}, "D2S (h)": {"target": "T7, D2S (h) (Homo sapiens, UniProt P14416)", "T7 construct": "purchased Cerep (ExpresSProfile)", "T7 sequence (P14416 1-414 isoform P14416-2)": "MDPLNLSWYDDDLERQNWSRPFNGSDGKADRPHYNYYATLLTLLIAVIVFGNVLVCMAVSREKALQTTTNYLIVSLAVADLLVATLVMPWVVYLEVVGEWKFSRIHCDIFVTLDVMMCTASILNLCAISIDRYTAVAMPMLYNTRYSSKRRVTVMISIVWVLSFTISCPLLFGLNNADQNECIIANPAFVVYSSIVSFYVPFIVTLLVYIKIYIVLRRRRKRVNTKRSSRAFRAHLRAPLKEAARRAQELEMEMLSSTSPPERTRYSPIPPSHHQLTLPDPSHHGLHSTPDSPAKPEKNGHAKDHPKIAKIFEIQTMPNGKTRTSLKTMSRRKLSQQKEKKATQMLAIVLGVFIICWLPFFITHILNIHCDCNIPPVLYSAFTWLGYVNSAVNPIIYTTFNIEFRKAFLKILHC", "assay": "Cerep ExpresSProfile radioligand binding", "conditions": "10 micromolar; antagonist radioligand; read-out: % Inhibition of Control Specific Binding 2nd", "procedure": "as §1, §2, §3, §4, §5, §6, §7, §8, §9"}, "5-HT1A (h)": {"target": "T8, 5-HT1A (h) (Homo sapiens, UniProt P08908)", "T8 construct": "purchased Cerep (ExpresSProfile)", "T8 sequence (P08908 whole entry)": "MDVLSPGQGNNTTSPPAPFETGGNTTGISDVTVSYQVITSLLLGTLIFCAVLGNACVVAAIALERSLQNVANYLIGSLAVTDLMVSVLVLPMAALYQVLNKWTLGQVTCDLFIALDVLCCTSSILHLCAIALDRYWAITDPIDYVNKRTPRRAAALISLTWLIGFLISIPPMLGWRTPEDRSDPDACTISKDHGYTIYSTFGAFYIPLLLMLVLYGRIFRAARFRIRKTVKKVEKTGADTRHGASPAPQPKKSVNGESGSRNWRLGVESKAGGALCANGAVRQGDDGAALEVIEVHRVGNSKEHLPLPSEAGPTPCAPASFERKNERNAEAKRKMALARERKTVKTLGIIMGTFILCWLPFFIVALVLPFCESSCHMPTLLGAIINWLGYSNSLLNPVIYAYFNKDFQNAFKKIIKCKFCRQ", "assay": "Cerep ExpresSProfile radioligand binding", "conditions": "10 micromolar, agonist radioligand", "procedure": "as §1, §2, §3, §4, §5, §6, §7, §8, §9"}, "GABA (non-selective)": {"test_system": "GABA (non-selective)", "assay": "Cerep ExpresSProfile radioligand binding", "conditions": "10 micromolar; agonist radioligand", "procedure": "as §1, §2, §3, §4, §5, §6, §7, §8, §9"}, "GAL2 (h)": {"target": "T9, GAL2 (h) (Homo sapiens, UniProt O43603)", "T9 construct": "purchased Cerep (ExpresSProfile)", "T9 sequence (O43603 whole entry)": "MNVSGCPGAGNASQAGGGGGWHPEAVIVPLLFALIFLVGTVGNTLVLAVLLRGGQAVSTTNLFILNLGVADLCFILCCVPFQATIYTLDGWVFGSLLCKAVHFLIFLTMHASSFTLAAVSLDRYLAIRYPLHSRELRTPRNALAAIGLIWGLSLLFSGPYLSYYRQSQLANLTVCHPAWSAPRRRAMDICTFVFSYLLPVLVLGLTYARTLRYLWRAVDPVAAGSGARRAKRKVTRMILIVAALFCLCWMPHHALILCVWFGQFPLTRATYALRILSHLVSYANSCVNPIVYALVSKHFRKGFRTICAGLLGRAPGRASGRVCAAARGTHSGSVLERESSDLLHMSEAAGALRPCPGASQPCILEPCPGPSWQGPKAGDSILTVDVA", "assay": "Cerep ExpresSProfile radioligand binding", "conditions": "10 micromolar; agonist radioligand; read-out: % Inhibition of Control Specific Binding 2nd", "procedure": "as §1, §2, §3, §4, §5, §6, §7, §8, §9"}, "D1 (h)": {"target": "T10, D1 (h) (Homo sapiens, UniProt P21728)", "T10 construct": "purchased Cerep (ExpresSProfile)", "T10 sequence (P21728 whole entry)": "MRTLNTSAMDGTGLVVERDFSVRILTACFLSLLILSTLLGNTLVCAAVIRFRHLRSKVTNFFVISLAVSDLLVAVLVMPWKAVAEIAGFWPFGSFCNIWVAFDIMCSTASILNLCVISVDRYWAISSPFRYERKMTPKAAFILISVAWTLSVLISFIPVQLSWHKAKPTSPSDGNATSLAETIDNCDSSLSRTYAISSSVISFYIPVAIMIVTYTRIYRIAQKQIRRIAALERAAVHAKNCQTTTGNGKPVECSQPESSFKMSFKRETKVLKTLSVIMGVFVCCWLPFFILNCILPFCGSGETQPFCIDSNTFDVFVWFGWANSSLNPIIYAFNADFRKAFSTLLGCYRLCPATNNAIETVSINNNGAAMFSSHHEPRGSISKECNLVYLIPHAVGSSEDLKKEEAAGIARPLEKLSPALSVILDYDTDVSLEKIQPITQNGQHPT", "assay": "Cerep ExpresSProfile radioligand binding", "conditions": "10 micromolar, antagonist radioligand", "procedure": "as §1, §2, §3, §4, §5, §6, §7, §8, §9"}, "B2 (h)": {"target": "T11, B2 (h) (Homo sapiens, UniProt P30411)", "T11 construct": "purchased Cerep (ExpresSProfile)", "T11 sequence (P30411 1-391)": "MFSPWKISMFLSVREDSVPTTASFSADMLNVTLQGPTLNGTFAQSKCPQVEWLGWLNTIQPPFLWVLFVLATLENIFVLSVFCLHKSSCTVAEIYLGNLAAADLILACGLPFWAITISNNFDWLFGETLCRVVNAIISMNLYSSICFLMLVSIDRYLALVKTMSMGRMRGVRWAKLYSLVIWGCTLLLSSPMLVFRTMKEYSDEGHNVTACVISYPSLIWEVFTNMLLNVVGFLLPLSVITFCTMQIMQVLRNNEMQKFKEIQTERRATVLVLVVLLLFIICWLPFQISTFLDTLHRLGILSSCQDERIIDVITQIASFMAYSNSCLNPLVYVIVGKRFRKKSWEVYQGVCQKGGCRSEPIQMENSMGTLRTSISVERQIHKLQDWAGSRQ", "assay": "Cerep ExpresSProfile radioligand binding", "conditions": "10 micromolar, agonist radioligand", "procedure": "as §1, §2, §3, §4, §5, §6, §7, §8, §9"}, "[1]": {"test_system": "heterozygous (Het) female Mecp2 mutant mice", "assay": "Phenotype severity score", "assay_type": "in vivo, mouse", "conditions": "for group average phenotype severity score: 5 mg/kg q72 hrs", "procedure": "Group Pre‐Treatment Week 2 Week 4 Week 6 Week 8\nTable S3. Group average bi-weekly phenotype severity scores after repeated dosing with PTX-BD4-3 (5 mg/kg, q72 hrs). Animals were assigned aggregate scores of phenotypic severity based on visual assessments of mobility, hind limb clasping, gait analysis, tremors, respiration and overall physical condition (scoring range = 0-12; Guy et al., 2007). The phenotype severity scores of Het animals […]\n(also on this page, place not known: tr eatment Disease Models & Mechanisms: doi:10.1242/dmm.044685: Supplementary information Disease Models & Mechanisms • Supplementary information) […]"}, "[2]": {"conditions": "read-out: % Inhibition of Control Specific Binding 1st"}, "[3]": {"conditions": "read-out: % Inhibition of Control Specific Binding 2nd"}, "[4]": {"conditions": "read-out: % Inhibition of Control Specific Binding Mean"}},
  "note": "Where two headings read alike, the source gives them in different places.",
  "data": [
    {"smiles": "COCCN(C)C(=O)c1cc(C(=O)N(C)CCOC)cc(C(=O)N(C)CCOC)c1", "note": "[PTX-BD4-3, benzene-1,3,5-tricarboxylic acid tris-[(2-methoxy-ethyl)-methyl-amide]]", "values": [
      {"measurement": "inhibition at 10 µM", "setting": "A2A (h); [2]", "result": 11.4, "unit": "%"},
      {"measurement": "inhibition at 10 µM", "setting": "A2A (h); [3]", "result": 30.1, "unit": "%"},
      {"measurement": "inhibition at 10 µM", "setting": "A2A (h); [4]", "result": 20.7, "unit": "%"},
      {"measurement": "% Inhibition of Control Specific Binding 1st", "setting": "BZD (central)", "result": 2.9, "unit": "%"},
      {"measurement": "inhibition at 10 µM", "setting": "A1 (h); [2]", "result": 8.9, "unit": "%"},
      {"measurement": "inhibition at 10 µM", "setting": "A1 (h); [3]", "result": 5.6, "unit": "%"},
      {"measurement": "inhibition at 10 µM", "setting": "A1 (h); [4]", "result": 7.2, "unit": "%"},
      {"measurement": "inhibition at 10 µM", "setting": "EP4 (h); [2]", "result": 9.5, "unit": "%"},
      {"measurement": "inhibition at 10 µM", "setting": "EP4 (h); [3]", "result": 10.4, "unit": "%"},
      {"measurement": "inhibition at 10 µM", "setting": "EP4 (h); [4]", "result": 9.9, "unit": "%"},
      {"measurement": "inhibition at 10 µM", "setting": "μ (MOP) (h)", "result": 6.6, "unit": "%"},
      {"measurement": "inhibition at 10 µM", "setting": "H1 (h); [2]", "result": 5.8, "unit": "%"},
      {"measurement": "inhibition at 10 µM", "setting": "H1 (h); [3]", "result": 5.2, "unit": "%"},
      {"measurement": "inhibition at 10 µM", "setting": "H1 (h); [4]", "result": 5.5, "unit": "%"},
      {"measurement": "inhibition at 10 µM", "setting": "5-HT2A (h); [2]", "result": 4.8, "unit": "%"},
      {"measurement": "inhibition at 10 µM", "setting": "5-HT2A (h); [4]", "result": 0, "unit": "%"},
      {"measurement": "inhibition at 10 µM", "setting": "D2S (h)", "result": 2.4, "unit": "%"},
      {"measurement": "inhibition at 10 µM", "setting": "5-HT1A (h); [2]", "result": 19.3, "unit": "%"},
      {"measurement": "inhibition at 10 µM", "setting": "5-HT1A (h); [4]", "result": 5, "unit": "%"},
      {"measurement": "% Inhibition of Control Specific Binding 1st", "setting": "GABA (non-selective)", "result": 16.5, "unit": "%"},
      {"measurement": "% Inhibition of Control Specific Binding 2nd", "setting": "GABA (non-selective)", "result": 19.1, "unit": "%"},
      {"measurement": "% Inhibition of Control Specific Binding Mean", "setting": "GABA (non-selective)", "result": 17.8, "unit": "%"},
      {"measurement": "inhibition at 10 µM", "setting": "GAL2 (h)", "result": 6.3, "unit": "%"},
      {"measurement": "inhibition at 10 µM", "setting": "D1 (h); [2]", "result": 10.7, "unit": "%"},
      {"measurement": "inhibition at 10 µM", "setting": "D1 (h); [3]", "result": 1.3, "unit": "%"},
      {"measurement": "inhibition at 10 µM", "setting": "D1 (h); [4]", "result": 6, "unit": "%"},
      {"measurement": "inhibition at 10 µM", "setting": "B2 (h); [2]", "result": 8.1, "unit": "%"},
      {"measurement": "inhibition at 10 µM", "setting": "B2 (h); [3]", "result": 0.3, "unit": "%"},
      {"measurement": "inhibition at 10 µM", "setting": "B2 (h); [4]", "result": 4.2, "unit": "%"},
      {"measurement": "change of global phenotypic severity scores over the time course", "setting": "[1]; 5 mg/kg q72 h, pre-treatment vs 8 weeks", "result": "did not increase significantly"},
      {"measurement": "group average phenotype severity score", "setting": "[1]; Week 2, scoring range 0-12, pre-treatment 2.73", "result": 3.46},
      {"measurement": "group average phenotype severity score", "setting": "[1]; Week 4, scoring range 0-12", "result": 3.66},
      {"measurement": "group average phenotype severity score", "setting": "[1]; Week 6, scoring range 0-12", "result": 4.33},
      {"measurement": "group average phenotype severity score", "setting": "[1]; Week 8, scoring range 0-12", "result": 3.66}
    ]}
  ]
}
